Measurements as given in US7416868B2, “Polyene polyketides, processes for their production and their use as a pharmaceutical” (Thallion Pharmaceuticals, Inc., priority 2003, dated 2008).
Values after ≈ are worked out from the molar mass of the structure shown.

Columns and labels:
C. albicans SC5314 = test: Mouse model of disseminated candidiasis, survival; assay type: in vivo; conditions: CD-1 mice infected i.v. with C. albicans SC5314; 1 or 3 mg/kg i.p. once daily for 4 days
Experimental: Compound 2(a) was provided as a dry powder with an estimated purity of 95+%. Fungizone (amphotericin B desoxycholate, to be used as a comparitor), was also provided as a dry powder with an estimated purity of 95+%. The compound 2(a) and Fungizone were stored as dry powders at −80° C. until the day of administration.
Female mice (species Mus musculus, strain CD-1, Charles River) with body weight range of 22-24 g were used in the study. […] All animal experiments were performed at the Step-Justine Hospital (Montreal, Quebec) according to ethical guidelines of animal experimentation of the ethical committee of the hospital. During the study, dead or apparently sick animals were promptly removed and sick mice were euthanized upon removal from the cage.
The animals were maintained in rooms under controlled conditions of temperature (23±2° C.), humidity (45±5%), photoperiodicity (12 hrs light/12 hrs dark) and air exchange. The animals were housed in polycarbonate cages (4/single cage) equipped to provide food and water. Sterile wood shavings were used for animal bedding and the bedding was replaced every other day. […]
The treatment regimen was repeated once daily for a total of 4 days. […] Moribund animals were scored as non-survivors and euthanized by CO2 inhalation. […]

A. flavus - ATCC 204304 = test: Disk diffusion assay, minimum effective concentration (MEC) and zone of inhibition (ZOI); assay type: cell-based, Aspergillus flavus
[1] = system: 60 different human tumor cell lines; test: NCI in vitro antiproliferative screen (SRB), GI50; assay type: cell-based
Experimental: In vitro antipoliferative study of Compound 2a was performed by the National Cancer Institute (National Institutes of Health, Bethesda, Md., USA) against a panel of cancer cell lines in order to determine the concentrations needed to obtain a 50% inhibition of cell proliferation (IC50). The operation of this unique screen utilizes 60 different human tumor cell lines, representing leukemia, melanoma, and cancers of the lung, colon, brain, ovary, breast prostate and kidney. Compound 2(a) was provided as a lyophilized powder with an estimated purity of 90+%. The compound was stored at −20° C. until day of use.
The human tumor cell lines of the cancer-screening panel were grown in RPMI 1640 medium containing 5% fetal bovine serum and 2 mM L-glutamine. For a typical screening experiment, cells were inoculated into 96 well microtiter plates in 100 μl at plating densities ranging from 5000 to 40,000 cells/well depending on the doubling time of individual cell lines (Table 8). […]
Following drug addition, the plates were incubated for an additional 48 hours at 37° C., 5% CO2, 95% air, and 100% relative humidity. […] Bound stain was subsequently solubilized with 10 mM trizma base, and the absorbance was read on an automated plate reader at a wavelength of 515 nm. […]
The growth inhibitory power of compound 2(a) was measured by NCl utilizing the GI50 value, rather than the classical IC50 value. […]

[2] = system: A. fumigatus - LSPQ 204305; test: Disk diffusion assay, minimum effective concentration (MEC) and zone of inhibition (ZOI); assay type: cell-based, Aspergillus fumigatus
Aspergillus species = test: Broth microdilution MIC determination, filamentous fungi
Experimental: (§1) Test compound preparation: The test article was prepared as 100× stock solutions in DMSO, with concentrations ranging from 3.2 mg/ml to 0.0625 mg/ml (a two-fold dilution series over 10 points). The first dilution (3.2 mg/ml) was prepared by resuspending 0.5 mg of each test article in 156.25 μl of DMSO.
(§2) Inoculum preparation: For fungal strains, the inoculum was prepared as follows. From an overnight culture in Yeast Media broth, cell density was adjusted in 0.85% saline to 0.5 McFarland. This procedure yielded a stock suspension of about 5×10^6 cells/ml. Following thorough vortexing, a working suspension was prepared by diluting the stock 1:50 in RPMI 1640, and then further diluting it 1:20 with RPMI 1640 to obtain the 2× test inoculum (about 5×10^3 cells/ml). For filamentous fungi, the inoculum was prepared as follows. From a spore suspension kept at 4° C., an appropriate dilution in 0.85% saline was made to obtain a final optical density 600 between 0.09-0.11. A working suspension was then prepared by diluting the spore suspension 50 times in RPMI to obtain the 2× test inoculum (about 1×10^5 CFU/ml).
(§3) MIC Determination: The 100× test article solutions were diluted 50 times in RPMI 1640, MH or BHI media and dispensed in a 96 well plate, one concentration per column, 10 columns in total. The 11th column contained RPMI 1640 with 1% DMSO with cells, the 12th column contained 100 μl of RPMI 1640 alone.
(§4) 50 μl of the final cell dilution (yeast, filamentous fungi or bacteria) of each indicator strain was added to each corresponding well of the microplate containing 50 μl of diluted drug or media alone. Assay plates were incubated at 35° C. for up to 72 hrs. MIC readings were determined at 24 and 48 hrs for the Candida and Aspergillus species, and at 48 and 72 hrs for Cryptococcus neoformans. MIC readout for each indicator was determined as the lowest concentration of test compound resulting in total absence of growth.

Candida species = test: Broth microdilution MIC determination (NCCLS M27-A adapted), yeasts
Experimental: as §1, §2, §3, §4

Structure (SMILES): CC(C=CCCC=CC=CC=CC=CC(=O)NC1=C(O)CCC1=O)C(O)C(C)C(O)C=CC=CC=CC=CC=CCC(OC1OC(C)C(O)C(O)C1O)C(C)C(=O)CC(O)CC(O)CC(O)C=CCC(O)CC(O)CC(O)CC(O)C=CCC(O)CC(O)CCCN (stereo not shown) [Compound 2(a), 56-Amino-15,17,33,35,37,41,43,45,47,51,53-undecahydroxy-14,16,30-trimethyl-31-oxo-29-(3,4,5-trihydroxy-6-methyl-tetrahydro-pyran-2-yloxy)-hexapentaconta-2,4,6,8,12,18,20,22,24,26,38,48-dodecaenoic acid (2-hydroxy-5-oxo-cyclopent-1-enyl)-amide]
- increase of median survival time of infected mice (C. albicans SC5314): 4 fold
- ZOI (zone of inhibition of fungal growth at the MEC) (A. flavus - ATCC 204304; Aspergillus flavus, at MEC, 24 hours of incubation): 2.7 mm
- antifungal activity against Aspergillus flavus (A. flavus - ATCC 204304; ZOI after 24 hours at 35° C.): active
- GI50 level ([1]; SN12C/renal carcinoma, HOP92/non-small cell lung carcinoma, HCC2998/colon carcinoma): nanomolar or picomolar level
- anticancer activity against human tumor cell lines ([1]; all cell lines assayed in the NCI screening panel): effective against all the human tumor cell lines
- ZOI (zone of inhibition of fungal growth at the MEC) ([2]; Aspergillus fumigatus, at MEC, 24 hours of incubation): 2.7 mm
- antifungal activity against Aspergillus fumigatus ([2]; ZOI after 24 hours at 35° C.): active
- MIC (Aspergillus species; 24 h, Aspergillus flavus ATCC 204304, 24 hrs): 4 µg/mL (≈ 3.08 µM)
- MIC (Aspergillus species; 24 h, Aspergillus fumigatus ATCC 204305, 24 hrs): 16 µg/mL (≈ 12.3 µM)
- MIC (Aspergillus species; 48 h, Aspergillus flavus ATCC 204304, 48 hrs): 8 µg/mL (≈ 6.17 µM)
- MIC (Aspergillus species; 48 h, Aspergillus fumigatus ATCC 204305, 48 hrs): 16 µg/mL (≈ 12.3 µM)
- MIC (Candida species; 24 h, Candida albicans ATCC 10231, 24 hrs): 4 µg/mL (≈ 3.08 µM)
- MIC (Candida species; 24 h, Candida glabrata LSPQ 0250, 24 hrs): 4 µg/mL (≈ 3.08 µM)
- MIC (Candida species; 24 h, Candida krusei LSPQ 0309, 24 hrs): 8 µg/mL (≈ 6.17 µM)
- MIC (Candida species; 24 h, Candida lusitaniae ATCC 200953, 24 hrs): 4 µg/mL (≈ 3.08 µM)
- MIC (Candida species; 48 h, Candida albicans ATCC 10231, 48 hrs): 4 µg/mL (≈ 3.08 µM)
- MIC (Candida species; 48 h, Candida glabrata LSPQ 0250, 48 hrs): 8 µg/mL (≈ 6.17 µM)
- MIC (Candida species; 48 h, Candida krusei LSPQ 0309, 48 hrs): 8 µg/mL (≈ 6.17 µM)
- MIC (Candida species; 48 h, Candida lusitaniae ATCC 200953, 48 hrs): 4 µg/mL (≈ 3.08 µM)
